Data taken from patent US20150056166A1, “FLAVONE DERIVATIVES AND THEIR USE” (Twincore GmbH, priority 2012, published 2015).

Columns and labels:
[1] = system: S52 (GT3a); assay: Luciferase infection assay, chimeric reporter virus S52/3a/R2a in Huh7-Lunet/CD81 cells; format: cell-based, HCV; conditions: Hepatitis C virus, Huh-7, 72 h
[2] = system: JcR-2a virus; assay: microbe, parasite or virus in culture; format: cell-based, HCV
Description: Combined effects of CsA on BJ486K and vice versa were analysed by inoculation of Huh7-Lunet/CD81 cells with JcR-2a virus in the presence of given drugs and determination of luciferase activity 72 h later. Mean values of three independent experiments each conducted in triplicates including the standard deviations are given. Data are normalized for values determined in mock treated controls.
Huh7-Lunet/CD81 cells were infected with reporter virus particles essentially as described recently (Koutsoudakis et al., J. Virol. 2006; 80: 5308-5320). Briefly, for inoculation with firefly luciferase reporter virus particles (Luc-Jc1) and Renilla reporter viruses (JcR-2a (Reiss et al., Cell host & microbe 2011; 9: 32-45) and GT1-6, see plasmids below), Huh7-Lunet/CD81 cells were seeded at a density of 6×10 e4 cells per well of a 12-well plate or 6.6×10 e3 cells per well of a 96-well plate 24 h prior to inoculation. If not stated otherwise, the virus particles were pretreated with the inhibitors for 1 h at 37° C. Cells were inoculated for 4 h at 37° C., viral inoculum was replaced by fresh culture fluid and infection was quantified 48 h or 72 h after virus inoculation using luciferase assays. To this end, cells were washed once with PBS and in the case of the Luc-Jc1 infected cells, lysed directly on the plate with 350 μl of cold lysis buffer (0.1% Triton-X100, 25 mM glycylglycine, 15 mM MgSO4, 4 mM EGTA and 1 mM dithiothreitol, pH 7.8) and after addition of the luciferase solution (200 μM luciferin, 25 mM glycylglycine, pH8) measured for 20 s in a luminometer (Lumat LB9507, Berthold, Freiburg, Germany). Cells infected with the renilla reporter virus were lysed in 200 μl lysis buffer (Promega, Mannheim, Germany) and after addition of the luciferase substrate (1 μM of coelenterazin (P. J. K., Kleinblittersdorf, Germany) in PBS) measured for 1 s in a luminometer (Lumat LB9507, Berthold, Freiburg, Germany). The indicated IC50 values were determined by using Sigma Plot software (Systat Inc; San Jose; Calif.). […]

[3] = system: J8 (GT2b); assay: Luciferase infection assay, chimeric reporter virus J8/2b/R2a in Huh7-Lunet/CD81 cells; format: cell-based, HCV; conditions: Hepatitis C virus, Huh-7, 72 h
[4] = system: HK6a (GT6a); assay: Luciferase infection assay, chimeric reporter virus HK6a/6a/R2a in Huh7-Lunet/CD81 cells; format: cell-based, HCV; conditions: Hepatitis C virus, Huh-7, 72 h
[5] = system: cell culture derived particles from genotype 1a, 1b, 2b, 3a, 4a, 5a and 6a; assay: Genotype panel of chimeric reporter viruses, summary statement; format: cell-based, HCV; conditions: Hepatitis C virus
[6] = system: J4 (GT1b); assay: Luciferase infection assay, chimeric reporter virus J4/1b/R2a in Huh7-Lunet/CD81 cells; format: cell-based, HCV; conditions: Hepatitis C virus, Huh-7, 72 h
[7] = Bioavailability of BJ486K in mice, plasma levels by LC-MS/MS; format: in vivo
Description: FIG. 10: Oral bioavailability of BJ486K in mice. A single dose of 0.25 mg/kg of BJ486K was administered through oral (A) or intravenous route (B). Plasma levels of BJ486K were determined 5, 15, 30, 60, 120 and 180 minutes post administration. Mean values of two animals including the standard errors are given. (C)
Bioavailability of BJ486K. Mice (24 in total) were treated either orally or intraveniously with a single dose of 0.25 mg/kg of the inhibitor (solved in saline/10% cremophor EL). At different time points after inhibitor administration (5 min, 15 min, 30 min, 60 min, 120 min or 180 min) two mice from each group were sacrified and the blood was centrifuged to obtain the plasma, which was stored at −80° C. until further examination. 400 μl of each plasma sample was mixed with equal amount of a 2% trifluoroacetic acid and loaded on a SPE Strata C18 column (equilibrated with 1 ml methanol and 1 ml 1% trifluoroacetic acid) for solid phase extraction of the plasma. After several washing steps (1% trifluoroacetic acid and water), the samples were eluted with acetonitrile and dried. […] Samples were further analyzed with a LC-MS/MS (triple quadrupole mass spectrometer LCMS 8030 Shimadzu), which was calibrated at the day of measurement. […] Bioavailability was calculated by dividing the area under curve (AUC) for oral route by the AUC for intravenous route.

[8] = system: SA13 (GT5a); assay: Luciferase infection assay, chimeric reporter virus SA13/5a/R2a in Huh7-Lunet/CD81 cells; format: cell-based, HCV; conditions: Hepatitis C virus, Huh-7, 72 h
[9] = system: Luc-Jc1 reporter viruses; assay: Drug added before, during or after inoculation with Luc-Jc1 reporter virus (FIG. 2C); format: cell-based, HCV; conditions: luciferase 72 h
Description: (A) Huh7-Lunet/CD81 cells were transfected with the subgenomic luciferase replicon depicted at the top. Drugs were added 4 h post transfection and the level of HCV RNA translation and RNA replication was quantified by luciferase assays 72 h post transfection. Mean values of three independent experiments each with quadruplicate measurements including the standard deviation are shown. (B) Cells were transfected with the Jc1 chimera depicted above and drugs were added 4 h later. HCV virus release in the presence or absence of given compounds was determined by quantification of intracellular and extracellular core protein levels using a core-specific ELISA. […] Infectivity was determined 72 h later by luciferase assays and compared to DMSO-treated controls. […]
Huh7-Lunet/CD81 cells were infected with reporter virus particles essentially as described recently (Koutsoudakis et al., J. Virol. 2006; 80: 5308-5320). […] Cells were inoculated for 4 h at 37° C., viral inoculum was replaced by fresh culture fluid and infection was quantified 48 h or 72 h after virus inoculation using luciferase assays. […] Cells infected with the renilla reporter virus were lysed in 200 μl lysis buffer (Promega, Mannheim, Germany) and after addition of the luciferase substrate (1 μM of coelenterazin (P. J. K., Kleinblittersdorf, Germany) in PBS) measured for 1 s in a luminometer (Lumat LB9507, Berthold, Freiburg, Germany). […]

With `COc1ccc(-c2cc(=O)c3c(O)c(O)c(OC)cc3o2)cc1` [BJ486K, 5,6-Dihydroxy-7-methoxy-2-(4-methoxy-phenyl)-chromen-4-one] as the molecule, how does the IC50 [1] read?
The IC50 was 2890 nM.

What about the IC90 [1] of the same molecule?
The IC90 was 10.7 µM.

What about the “decrease of the IC50 of BJ486K” value ([2]; 100 ng/mL of CsA) of the same molecule?
Its value is “ca. 3 fold”.

What about the IC90 ([2]; Hepatitis C virus, Huh-7, 72 h) of the same molecule?
The IC90 was 4.37 µM.

And the IC50 ([2]; Hepatitis C virus, Huh-7, read-out: IC50 of BJ486K)?
The IC50 was roughly 400 nM.

And the IC50 [3]?
The IC50 was 4.14 µM.

And the IC90 [3]?
The IC90 was 8.42 µM.

What about the IC50 [4] of the same molecule?
Its IC50 is 750 nM.

What about the IC90 [4] of the same molecule?
The IC90 was 2390 nM.

And the IC50 [5]?
The IC50 was less than 4.2 µM.

And the IC50 [6]?
The IC50 was 2350 nM.

What about the IC90 [6] of the same molecule?
The IC90 was 9.29 µM.

What about the bio-availability ([7]; mice) of the same molecule?
The bio-availability was “rather low”.

And the half-life ([7]; mouse, plasma, in mice)?
Its half-life is roughly 7 min.

What about the IC50 [8] of the same molecule?
Its IC50 is 1390 nM.

What about the IC90 [8] of the same molecule?
The IC90 was 5.33 µM.

And the “interference with HCV infection by time of addition” value [9]?
Its value is “only interfered with HCV infection when the drug was present during virus inoculation”.
